This note sets out measurements from ChEMBL document CHEMBL1143360, “Synthesis and biological evaluation of curcuminoid pyrazoles as new therapeutic agents in inflammatory bowel disease: effect on matrix metalloproteinases” (Bioorg Med Chem, 2009).

The source made the active and inactive calls. The calls are words filed in the database; no cut-off is given here.

The target of assay [1] is T1, Matrix metalloproteinase-9 (Homo sapiens, UniProt P14780). Kind of assay: Reduction of MMP9 activity in TNF-alpha/IL1-beta-stimulated human Caco-2 cells at 50 uM treated 1 hr before stimulation by zymography. The format is cell-based.
T1 sequence (P14780 whole entry): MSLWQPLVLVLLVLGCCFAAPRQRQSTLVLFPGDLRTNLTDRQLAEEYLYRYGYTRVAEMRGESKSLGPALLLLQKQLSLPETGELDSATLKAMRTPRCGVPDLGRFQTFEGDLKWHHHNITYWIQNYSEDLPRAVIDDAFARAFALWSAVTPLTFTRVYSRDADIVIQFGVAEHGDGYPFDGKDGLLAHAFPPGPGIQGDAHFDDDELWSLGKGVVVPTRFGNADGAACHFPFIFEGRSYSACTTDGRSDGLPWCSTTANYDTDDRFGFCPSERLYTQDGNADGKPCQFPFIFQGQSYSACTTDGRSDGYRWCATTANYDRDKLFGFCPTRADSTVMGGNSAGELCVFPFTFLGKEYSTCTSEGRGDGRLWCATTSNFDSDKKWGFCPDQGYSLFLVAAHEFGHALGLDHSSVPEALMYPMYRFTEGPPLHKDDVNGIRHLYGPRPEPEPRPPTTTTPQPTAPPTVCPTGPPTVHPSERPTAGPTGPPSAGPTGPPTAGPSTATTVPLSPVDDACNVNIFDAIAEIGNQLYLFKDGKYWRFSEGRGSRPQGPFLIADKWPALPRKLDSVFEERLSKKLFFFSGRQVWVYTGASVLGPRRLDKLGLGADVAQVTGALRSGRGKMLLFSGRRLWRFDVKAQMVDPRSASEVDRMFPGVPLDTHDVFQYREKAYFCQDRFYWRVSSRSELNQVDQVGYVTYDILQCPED
The target in assay [2] is T1, Matrix metalloproteinase-9. Description: Reduction of MMP9 activity in TNF-alpha/IL1-beta-stimulated human Caco-2 cells treated 1 hr before stimulation by zymography. Format: cell-based.

With `COc1cc(/C=C/c2cc(/C=C/c3ccc(O)c(OC)c3)[nH]n2)ccc1O` [CURCUMIN PYRAZOLE], the outcome in assay [1] was Active. In assay [2], this molecule yielded a concentration for half-maximal inhibition (IC50) of 19.4 µM.

On to `COc1cc(/C=C/c2cc(C)[nH]n2)ccc1O`, for which, in assay [1], the result was Active. The same molecule yielded a half-maximal inhibitory concentration (IC50) in assay [2] of 17.6 µM.

On to `COc1cc(/C=C/c2n[nH]c(C)c2C)ccc1O`, for which, in assay [1], the outcome was Active. For the same molecule, half-maximal inhibition in assay [2] (IC50) required 8 µM.

In assay [2], `COc1cc(/C=C/C(=O)CC(=O)/C=C/c2ccc(O)c(OC)c2)ccc1O` [CURCUMIN] came in with an IC50 of 8.5 µM.
